This is an account of results in publication PMC2779714 (Science signaling, 2009).

Experiment [1] deals with TRPM2 (Mus musculus, UniProt Q91YD4). The experiment in a line: whole-cell patch clamp with intracellular ADPR. It counts as cell-based. A general note: The patch-clamp technique gives a direct electrical read-out from membranes.
The target of experiment [2] is TRPM2 (Rattus norvegicus, UniProt E9PTA2). The experiment in a line: whole-cell patch clamp with intracellular ADPR. It is filed as cell-based.
Sequence of TRPM2 (Rattus norvegicus, UniProt E9PTA2) (E9PTA2 whole entry): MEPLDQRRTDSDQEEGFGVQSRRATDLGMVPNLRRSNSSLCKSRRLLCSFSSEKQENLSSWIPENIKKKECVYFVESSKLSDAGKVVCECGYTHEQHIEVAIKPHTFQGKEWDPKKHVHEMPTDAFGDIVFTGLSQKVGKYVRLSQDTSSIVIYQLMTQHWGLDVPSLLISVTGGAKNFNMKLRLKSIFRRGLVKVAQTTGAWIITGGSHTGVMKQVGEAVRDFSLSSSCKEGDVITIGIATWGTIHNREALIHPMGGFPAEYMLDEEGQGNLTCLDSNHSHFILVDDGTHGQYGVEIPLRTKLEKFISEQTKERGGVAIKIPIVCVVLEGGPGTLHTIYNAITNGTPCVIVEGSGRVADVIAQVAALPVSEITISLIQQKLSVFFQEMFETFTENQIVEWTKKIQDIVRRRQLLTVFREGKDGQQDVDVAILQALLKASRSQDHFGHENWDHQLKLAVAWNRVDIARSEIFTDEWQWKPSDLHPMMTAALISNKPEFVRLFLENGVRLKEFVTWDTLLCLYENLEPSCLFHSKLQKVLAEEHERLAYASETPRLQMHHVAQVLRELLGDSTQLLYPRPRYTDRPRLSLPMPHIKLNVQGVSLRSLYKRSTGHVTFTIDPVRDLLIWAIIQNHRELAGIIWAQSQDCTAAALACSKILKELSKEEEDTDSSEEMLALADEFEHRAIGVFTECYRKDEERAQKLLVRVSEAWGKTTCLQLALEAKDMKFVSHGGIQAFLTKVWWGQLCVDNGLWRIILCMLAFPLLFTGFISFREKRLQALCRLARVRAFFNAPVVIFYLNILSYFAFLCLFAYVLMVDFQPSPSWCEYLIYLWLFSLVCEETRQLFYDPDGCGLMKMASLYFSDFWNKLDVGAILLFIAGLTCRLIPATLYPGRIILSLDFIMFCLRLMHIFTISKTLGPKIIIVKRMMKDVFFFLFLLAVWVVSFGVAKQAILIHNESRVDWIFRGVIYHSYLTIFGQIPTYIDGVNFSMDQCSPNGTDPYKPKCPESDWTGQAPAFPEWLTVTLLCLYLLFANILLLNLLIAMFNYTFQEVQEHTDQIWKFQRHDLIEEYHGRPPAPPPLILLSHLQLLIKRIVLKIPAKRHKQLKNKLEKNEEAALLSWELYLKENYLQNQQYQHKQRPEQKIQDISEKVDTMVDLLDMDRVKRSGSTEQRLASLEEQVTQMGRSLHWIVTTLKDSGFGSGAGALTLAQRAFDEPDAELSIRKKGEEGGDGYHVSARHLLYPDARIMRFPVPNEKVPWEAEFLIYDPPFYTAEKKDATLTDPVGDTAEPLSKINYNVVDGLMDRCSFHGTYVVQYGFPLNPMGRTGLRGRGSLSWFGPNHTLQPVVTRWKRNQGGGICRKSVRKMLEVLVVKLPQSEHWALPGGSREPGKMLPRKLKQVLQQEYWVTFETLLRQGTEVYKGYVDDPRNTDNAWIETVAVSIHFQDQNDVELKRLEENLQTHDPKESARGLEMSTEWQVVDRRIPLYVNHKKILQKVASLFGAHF

Sequence of TRPM2 (Mus musculus, UniProt Q91YD4) (Q91YD4 whole entry): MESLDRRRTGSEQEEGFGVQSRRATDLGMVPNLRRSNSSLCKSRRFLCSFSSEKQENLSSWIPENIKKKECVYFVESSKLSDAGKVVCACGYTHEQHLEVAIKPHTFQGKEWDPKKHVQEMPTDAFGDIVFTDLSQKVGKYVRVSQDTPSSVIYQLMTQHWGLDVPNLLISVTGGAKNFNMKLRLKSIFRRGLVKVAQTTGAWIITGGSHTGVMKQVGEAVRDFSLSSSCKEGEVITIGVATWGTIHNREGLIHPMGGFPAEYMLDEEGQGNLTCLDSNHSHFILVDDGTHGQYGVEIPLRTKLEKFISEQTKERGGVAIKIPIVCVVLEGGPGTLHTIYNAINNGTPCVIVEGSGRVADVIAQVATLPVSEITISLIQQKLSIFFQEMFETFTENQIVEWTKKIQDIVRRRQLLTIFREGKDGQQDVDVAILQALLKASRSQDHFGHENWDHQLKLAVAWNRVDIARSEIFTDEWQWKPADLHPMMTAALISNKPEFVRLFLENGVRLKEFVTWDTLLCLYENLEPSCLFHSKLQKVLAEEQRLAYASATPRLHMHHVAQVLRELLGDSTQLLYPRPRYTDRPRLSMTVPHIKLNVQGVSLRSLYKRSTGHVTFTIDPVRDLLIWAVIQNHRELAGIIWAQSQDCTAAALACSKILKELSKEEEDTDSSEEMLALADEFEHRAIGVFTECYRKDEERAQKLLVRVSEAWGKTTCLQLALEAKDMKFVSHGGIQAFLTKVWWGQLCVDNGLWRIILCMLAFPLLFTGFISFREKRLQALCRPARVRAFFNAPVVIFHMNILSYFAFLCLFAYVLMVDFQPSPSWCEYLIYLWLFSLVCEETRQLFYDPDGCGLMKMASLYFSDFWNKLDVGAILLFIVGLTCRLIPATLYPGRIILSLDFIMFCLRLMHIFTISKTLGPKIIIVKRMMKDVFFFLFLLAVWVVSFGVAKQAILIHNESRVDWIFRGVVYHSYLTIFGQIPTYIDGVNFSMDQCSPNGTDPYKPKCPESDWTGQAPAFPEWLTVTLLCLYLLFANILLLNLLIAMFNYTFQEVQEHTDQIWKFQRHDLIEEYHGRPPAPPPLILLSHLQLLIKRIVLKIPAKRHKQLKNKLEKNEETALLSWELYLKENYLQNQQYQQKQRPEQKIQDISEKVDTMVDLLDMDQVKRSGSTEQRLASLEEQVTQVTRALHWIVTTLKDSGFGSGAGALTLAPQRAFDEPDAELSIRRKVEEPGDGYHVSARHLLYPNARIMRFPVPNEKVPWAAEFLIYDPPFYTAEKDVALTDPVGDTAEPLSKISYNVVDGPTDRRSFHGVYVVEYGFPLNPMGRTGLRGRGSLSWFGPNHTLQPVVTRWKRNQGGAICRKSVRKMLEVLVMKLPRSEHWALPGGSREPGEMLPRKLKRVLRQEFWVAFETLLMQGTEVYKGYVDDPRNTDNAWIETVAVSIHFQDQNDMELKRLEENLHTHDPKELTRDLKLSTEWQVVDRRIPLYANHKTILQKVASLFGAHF

Turning to `Nc1ncnc2c1ncn2[C@@H]1O[C@H](COP(=O)(O)OP(=O)(O)OC[C@H]2OC(O)[C@H](O)[C@@H]2O)[C@@H](O)[C@H]1O` (some centres unmarked) [ADPR], the concentration giving a half-maximal response (EC50) on TRPM2 [1] came out at 360 µM; at TRPM2 [2], 110 µM.

The EC50 is the concentration that produces a half-maximal response.
